Results from publication PMC7570844, “Skin Damages—Structure Activity Relationship of Benzimidazole Derivatives Bearing a 5-Membered Ring System” (Molecules, 2020).

Experiments:
[1] = test system: herpes simplex virus-1 TK-KOS ACVr; assay: microbe, parasite or virus in culture; assay type: cell-based; conditions: Human alphaherpesvirus 1, HEL, read-out: Antiviral EC50
[2] = test system: herpes simplex virus-2 (G); assay: Antiviral activity in HEL cell cultures (CPE, MTS); assay type: cell-based; conditions: Human alphaherpesvirus 2; Herpes simplex virus-2, HEL cells
[3] = test system: human embryonic lung (HEL) cell cultures
vaccinia virus = assay: microbe, parasite or virus in culture; assay type: cell-based; conditions: Orthopoxvirus vaccinia, HEL, read-out: Antiviral EC50
[4] = test system: herpes simplex virus-1 (KOS); assay: Antiviral activity in HEL cell cultures (CPE, MTS); assay type: cell-based; conditions: Human alphaherpesvirus 1, HEL cells
[5] = Ferric reducing antioxidant power (FRAP) test; conditions: mean ± SEM
[6] = DPPH radical scavenging test; conditions: mean ± SEM
Adeno virus-2 = assay: Antiviral activity in HEL cell cultures (CPE, MTS); assay type: cell-based; conditions: Adeno virus-2, HEL cells
[7] = UV filtering parameters of cosmetic formulation on PMMA plates (modified Diffey-Robson); assay type: physicochemical
Trichophyton tonsurans = assay: Antidermatophyte plaque growth inhibition; assay type: cell-based; conditions: read-out: Percent growth inhibition
[8] = test system: Trichophyton mentagrophytes; assay: Antidermatophyte plaque growth inhibition; assay type: cell-based; conditions: read-out: Percent growth inhibition
Microsporum canis = assay: Antidermatophyte plaque growth inhibition; assay type: cell-based; conditions: read-out: Percent growth inhibition
Epidermophyton floccosum = assay: Antidermatophyte plaque growth inhibition; assay type: cell-based; conditions: read-out: Percent growth inhibition
[9] = UV filtering parameters of compounds in solution (MeOH, 290-400 nm)
[10] = test system: M. gypseum, M. canis, T. mentagrophytes, T. tonsurans and E. floccosum; assay: Antidermatophyte activity, all five dermatophytes taken together; assay type: cell-based; conditions: 100 µg/mL
Microsporum gypseum = assay: Antidermatophyte plaque growth inhibition; assay type: cell-based; conditions: Nannizzia gypsea, read-out: Percent growth inhibition
[11] = test system: vesicular stomatitis virus; assay: microbe, parasite or virus in culture; assay type: cell-based; conditions: HeLa, read-out: Antiviral EC50
[12] = test system: Respiratory syncytial virus; assay: microbe, parasite or virus in culture; assay type: cell-based; conditions: human respiratory syncytial virus, HeLa cells, read-out: Antiviral EC50
Coxsackie virus B4 = assay: Antiviral activity in HeLa cell cultures (CPE, MTS); assay type: cell-based; conditions: Enterovirus B; Coxsackie virus B4, HeLa cells

Work on `Nc1nc2c(ncn2COCCO)c(=O)[nH]1` [Acyclovir, reference compound] yielded an EC50 [1] of 2 µM, an EC50 [2] of 0.6 µM and a Cytotoxic concentration [3] greater than 250 µM. It also gave an EC50 (vaccinia virus) greater than 250 µM and an EC50 [4] of 0.6 µM.
Compound `O=c1[nH]c(=O)n([C@H]2C[C@H](O)[C@@H](CO)O2)cc1/C=C/Br` [Birivudin, Brivudin, reference compound] has an EC50 [1] of 0.1 µM, a Cytotoxic concentration [3] greater than 250 µM and an EC50 (vaccinia virus) of 5.8 µM. For the same compound, the EC50 [4] was 0.01 µM.
With `O=C(O)/C=C/c1ccc(O)c(O)c1` [Caffeic acid, reference compound] the FRAP [5] was 10156.12 ± 15.5 µmolTE/g and the “DPPH (% Inhibition)” value ([6]; tested concentration 0.0105 mg/mL) was 81.35 ± 0.35%.
Compound `Nc1ccn(C[C@@H](CO)OCP(=O)(O)O)c(=O)n1` [Cidofovir, reference compound] has an EC50 [1] of 2.8 µM, an EC50 (Adeno virus-2) of 10 µM and an EC50 [2] of 3.4 µM. For the same compound, the Cytotoxic concentration [3] was greater than 250 µM, the EC50 (vaccinia virus) was 50 µM and the EC50 [4] was 4.5 µM.
With `Nc1nc(O)c2ncn(COC(CO)CO)c2n1` [Ganciclovir, reference compound] the EC50 [1] was 0.2 µM, the EC50 [2] was 0.01 µM and the Cytotoxic concentration [3] was greater than 250 µM. For the same compound, the EC50 (vaccinia virus) was greater than 100 µM and the EC50 [4] was 0.01 µM.
Work on `O=S(=O)(O)c1ccc2[nH]c(-c3ccccc3)nc2c1` [PBSA, 2-phenyl-1H-benzimidazole-5-sulphonic acid, reference compound] yielded an SPF ([7]; 1% in formulation) of 3.22, a UVA/UVB ([7]; 1% in formulation) of 0.33 and a UVAPF ([7]; 1% in formulation) of 0.94. For the same compound, the λc ([7]; 1% in formulation) was 319 nm, the SPF ([7]; 2% in formulation) was 4.63 and the UVA/UVB ([7]; 2% in formulation) was 0.22. For the same compound, the UVAPF ([7]; 2% in formulation) was 0.94, the λc ([7]; 2% in formulation) was 321 nm and the SPF ([7]; 3% in formulation) was 5.09. It also gave a UVA/UVB ([7]; 3% in formulation) of 0.25, a UVAPF ([7]; 3% in formulation) of 1.02 and a λc ([7]; 3% in formulation) of 324 nm. For the same compound, the inhibition at 100 µg/mL (Trichophyton tonsurans) was less than 0%, the inhibition at 100 µg/mL [8] was less than 0% and the FRAP [5] was “<LOQ *”. It also gave an inhibition at 100 µg/mL (Microsporum canis) of less than 0%, an inhibition at 100 µg/mL (Epidermophyton floccosum) of 7.41 ± 0.43% and an SPF [9] of 3.40±0.17. For the same compound, the UVA/UVB [9] was 0.29, the UVAPF [9] was 1.03±0.08 and the “λc (critical wavelength)” value [9] was 322 nm. For the same compound, the “DPPH (% Inhibition)” value ([6]; tested at 1 mg/mL) was “<LOQ *”, the “Activity on dermatophytes (in words)” value [10] was “no activity on dermatophytes” and the inhibition at 100 µg/mL (Microsporum gypseum) was 9.62 ± 0.61%.
For `NC(=O)c1ncn([C@@H]2O[C@H](CO)[C@@H](O)[C@H]2O)n1` [Ribaravin, ribavirin, reference compound], the EC50 [11] was 112 µM, the EC50 [12] was 10 µM and the EC50 (Coxsackie virus B4) was 250 µM.
